Our source for the Km values is paper PMC7842274 (ACS catalysis, 2020).

For orientation: Km means the concentration of substrate that gives half-maximal velocity.

One assay concerns the target Δ80PmHS2 (Pasteurella multocida, UniProt Q5SGE1). Kind of assay: apparent kinetics. The assay is classed as biochemical. To be noted: alpha1-4-GlcNAcT activity (acceptor; donor not stated in main text).
For a further assay, the target named is PmHS2 (Pasteurella multocida, UniProt Q5SGE1). Kind of assay: apparent kinetics. The note with it: alpha1-4-GlcNAcT activity (acceptor; donor not stated in main text). The assay is classed as biochemical.

For GlcAβ2AA, the Michaelis-Menten constant (Km) at Δ80PmHS2 came out at 5.3 ± 0.7 mM; on PmHS2, 4 ± 0.6 mM.
